# Reference: patent US20170210751A1, “PRMT5 INHIBITORS AND USES THEREOF” (Epizyme, Inc., priority 2014, published 2017)
# Experiments:
# Z-138 cell line = assay: Z-138 Proliferation Assay (Cell Titer Glo); assay type: cell-based; settings: Homo sapiens, 120 h; Z-138 cells, 5 days incubation, ATP (Cell Titer Glo)
# Excerpt: Z-138 Proliferation Assay
# Z-138 suspension cells were purchased from ATCC (American Type Culture Collection, Manassas, Va.). RPMI/Glutamax medium, penicillin-streptomycin, heat inactivated fetal bovine serum were purchased from Life Technologies, Grand Island, N.Y., USA. V-bottom polypropylene 384-well plates were purchased from Greiner Bio-One, Monroe, N.C., USA. Cell culture 384-well white opaque plates were purchased from Perkin Elmer, Waltham, Mass., USA. Cell-Titer Glo® was purchased from Promega Corporation, Madison, Wis., USA. SpectraMax M5 plate reader was purchased from Molecular Devices LLC, Sunnyvale, Calif., USA.
# Z-138 suspension cells were maintained in growth medium (RPMI 1640 supplemented with 10% v/v heat inactivated fetal bovine serum and cultured at 37° C. under 5% CO2. Under assay conditions, cells were incubated in assay medium (RPMI 1640 supplemented with 10% v/v heat inactivated fetal bovine serum and 100 units/mL penicillin-streptomycin) at 37° C. under 5% CO2.
# For the assessment of the effect of compounds on the proliferation of the Z-138 cell line, exponentially growing cells were plated in 384-well white opaque plates at a density of 10,000 cells/ml in a final volume of 50 μl of assay medium. A compound source plate was prepared by performing triplicate nine-point 3-fold serial dilutions in DMSO, beginning at 10 mM (final top concentration of compound in the assay was 20 μM and the DMSO was 0.2%). A 100 nL aliquot from the compound stock plate was added to its respective well in the cell plate. […] After addition of compounds, assay plates were incubated for 5 days at 37° C., 5% CO2, relative humidity >90%.
# Cell viability was measured by quantitation of ATP present in the cell cultures, adding 35 μl of Cell Titer Glo® reagent to the cell plates. Luminescence was read in the SpectraMax M5 microplate reader. The concentration of compound inhibiting cell viability by 50% was determined using a 4-parametric fit of the normalized dose response curves.
# [1] = tested on: Symmetric di-Methyl Arginine in Z-138 cells; assay: Z-138 Methylation Assay (In Cell Western for symmetric di-methyl arginine); assay type: cell-based; settings: Homo sapiens, 96 hours incubation, symmetric di-methyl arginine normalised to DNA content, read-out: ICW EC50
# Excerpt: Z-138 suspension cells were purchased from ATCC (American Type Culture Collection, Manassas, Va.). RPMI/Glutamax medium, penicillin-streptomycin, heat inactivated fetal bovine serum, and D-PBS were purchased from Life Technologies, Grand Island, N.Y., USA. Odyssey blocking buffer, 800CW goat anti-rabbit IgG (H+L) antibody, and Licor Odyssey infrared scanner were purchased from Licor Biosciences, Lincoln, Nebr., USA. Symmetric di-methyl arginine antibody was purchased from EMD Millipore, Billerica, Mass., USA. 16% Paraformaldehyde was purchased from Electron Microscopy Sciences, Hatfield, Pa., USA.
# Z-138 suspension cells were maintained in growth medium (RPMI 1640 supplemented with 10% v/v heat inactivated fetal bovine serum and 100 units/mL penicillin-streptomycin) and cultured at 37° C. under 5% CO2.
# Cell Treatment, In Cell Western (ICW) for detection of Symmetric di-Methyl Arginine and DNA content.
# Z-138 cells were seeded in assay medium at a concentration of 50,000 cells per mL to a 384-well cell culture plate with 50 μL per well. Compound (100 nL) from 384 well source plates was added directly to 384 well cell plate. Plates were incubated at 37° C., 5% CO2 for 96 hours. After four days of incubation, 40 μL of cells from incubated plates were added to poly-D-lysine coated 384 well culture plates (BD Biosciences 356697). Plates were incubated at room temperature for 30 minutes then incubated at 37° C., 5% CO2 for 5 hours. After the incubation, 40 μL per well of 8% paraformaldehyde in PBS (16% paraformaldahyde was diluted to 8% in PBS) was added to each plate and incubated for 30 minutes. Plates were transferred to a Biotek 405 plate washer and washed 5 times with 100 μL per well of wash buffer (IX PBS with 0.1% Triton X-100 (v/v)). Next […] well of Odyssey blocking buffer were added to each plate and incubated 1 hour at room temperature. Blocking buffer was removed and 20 μL per well of primary antibody was added (symmetric di-methyl arginine diluted 1:100 in Odyssey buffer with 0.1% Tween 20 (v/v)) and plates were incubated overnight (16 hours) at 4° C. Plates were washed 5 times with 100 μL per well of wash buffer. Next 20 μL per well of secondary antibody was added (1:200 800CW goat anti-rabbit IgG (H+L) antibody, 1:1000 DRAQ5 (Biostatus limited) in Odyssey buffer with 0.1% Tween 20 (v/v)) and incubated for 1 hour at room temperature. The plates were washed 5 times with 100 μL per well wash buffer then 1 time with 100 μL per well of water. Plates were allowed to dry at room temperature then imaged on the Licor Odyssey machine which measures integrated intensity at 700 nm and 800 nm wavelengths. Both 700 and 800 channels were scanned.
# First, the ratio for each well was determined by:
# Each plate included fourteen control wells of DMSO only treatment (minimum inhibition) as well as fourteen control wells for maximum inhibition treated with 3 μM of a reference compound (Background wells). The average of the ratio values for each control type was calculated and used to determine the percent inhibition for each test well in the plate. Reference compound was serially diluted three-fold in DMSO for a total of nine test concentrations, beginning at 3 μM. Percent inhibition was determined and IC50 curves were generated using triplicate wells per concentration of compound.
Structure (SMILES),EC50 (Z-138 cell line),EC50 [1]
"O=C(NC[C@H](O)CN1CCc2sccc2C1)c1cc(NC2COC2)ncn1 [Compound 1-1, (S)—N-(3-(6,7-dihydrothieno[3,2-c]pyridin-5(4H)-yl)-2-hydroxypropyl)-6-(oxetan-3-ylamino)pyrimidine-4-carboxamide]",1 to 10 µM,< 0.1 µM
"CC(=O)N1CC(Nc2cc(C(=O)NC[C@H](O)CN3CCc4sccc4C3)ncn2)C1 [Compound 1-2, (S)-6-((1-acetylazetidin-3-yl)amino)-N-(3-(6,7-dihydrothieno[3,2-c]pyridin-5(4H)-yl)-2-hydroxypropyl)pyrimidine-4-carboxamide]",0.101 to 1 µM,< 0.1 µM
"CC(=O)N1CCC(Nc2cc(C(=O)NC[C@H](O)CN3CCc4sccc4C3)ncn2)CC1 [Compound 1-3, (S)-6-((1-acetylpiperidin-4-yl)amino)-N-(3-(6,7-dihydrothieno[3,2-c]pyridin-5(4H)-yl)-2-hydroxypropyl)pyrimidine-4-carboxamide]",0.101 to 1 µM,< 0.1 µM
"O=C(COc1cccc2cccnc12)NCC(O)CN1CCc2sccc2C1 (stereo not drawn) [Compound 1-4, N-(2-hydroxy-3-{4H,5H,6H,7H-thieno[3,2-c]pyridin-5-yl}propyl)-2-(quinolin-8-yloxy)acetamide]",1 to 10 µM,< 0.1 µM
"CC(=O)N1CCC(Nc2cc(C(=O)NC[C@H](O)CN3CCc4nc(C)sc4C3)ncn2)CC1 [Compound 1-7, (S)-6-((1-acetylpiperidin-4-yl)amino)-N-(2-hydroxy-3-(2-methyl-6,7-dihydrothiazolo[5,4-c]pyridin-5(4H)-yl)propyl)pyrimidine-4-carboxamide]",> 5 µM,> 1 µM
"Cc1nc2c(s1)CN(C[C@@H](O)CNC(=O)c1cc(NC3COC3)ncn1)CC2 [Compound 1-8, (S)—N-(2-hydroxy-3-(2-methyl-6,7-dihydrothiazolo[5,4-c]pyridin-5(4H)-yl)propyl)-6-(oxetan-3-ylamino)pyrimidine-4-carboxamide]",> 5 µM,> 1 µM
"Cc1csc2c1CN(C[C@@H](O)CNC(=O)c1cc(NC3COC3)ncn1)CC2 [Compound 1-11, (S)—N-(2-hydroxy-3-(3-methyl-6,7-dihydrothieno[3,2-c]pyridin-5(4H)-yl)propyl)-6-(oxetan-3-ylamino)pyrimidine-4-carboxamide]",1 to 10 µM,< 0.1 µM
"CC(=O)N1CC(Nc2cc(C(=O)NC[C@H](O)CN3CCc4scc(C)c4C3)ncn2)C1 [Compound 1-12, (S)-6-((1-acetylazetidin-3-yl)amino)-N-(2-hydroxy-3-(3-methyl-6,7-dihydrothieno[3,2-c]pyridin-5(4H)-yl)propyl)pyrimidine-4-carboxamide]",0.101 to 1 µM,< 0.1 µM
"CC(=O)N1CCC(Nc2cc(C(=O)NC[C@H](O)CN3CCc4scc(C)c4C3)ncn2)CC1 [Compound 1-13, (S)-6-((1-acetylpiperidin-4-yl)amino)-N-(2-hydroxy-3-(3-methyl-6,7-dihydrothieno[3,2-c]pyridin-5(4H)-yl)propyl)pyrimidine-4-carboxamide]",0.101 to 1 µM,< 0.1 µM
"CC(=O)N1CCC(Nc2cc(C(=O)NC[C@H](O)CN3CCc4scc(C)c4C3)ccn2)CC1 [Compound 1-14, (S)-2-((1-acetylpiperidin-4-yl)amino)-N-(2-hydroxy-3-(3-methyl-6,7-dihydrothieno[3,2-c]pyridin-5(4H)-yl)propyl)isonicotinamide]",0.101 to 1 µM,< 0.1 µM
"O=C(NC[C@H](O)CN1CCc2ncsc2C1)c1cc(NC2COC2)ncn1 [Compound 1-16, (S)—N-(3-(6,7-dihydrothiazolo[5,4-c]pyridin-5(4H)-yl)-2-hydroxypropyl)-6-(oxetan-3-ylamino)pyrimidine-4-carboxamide]",> 5 µM,> 1 µM
"CC(=O)N1CC(Nc2cc(C(=O)NC[C@H](O)CN3CCc4ncsc4C3)ncn2)C1 [Compound 1-17, (S)-6-((1-acetylazetidin-3-yl)amino)-N-(3-(6,7-dihydrothiazolo[5,4-c]pyridin-5(4H)-yl)-2-hydroxypropyl)pyrimidine-4-carboxamide]",> 5 µM,> 1 µM
